{"source": "PubChem BioAssay AID2060506", "about": "(Molecular Pharmacology Branch, DTP, NCI, 2025)", "tested_on": "598228-144-R-J1-PDC complex spheroid viability", "assay": "Anticancer human tumor 598228-144-R-J1-PDC patient-derived serous endometrial adenocarcinoma cell line growth inhibition [GQUAD]", "details": "for viability, T/C: stronger effect = lower value", "excerpt": "DNA G-quadruplex Stabilizer Agents in Combinations in Complex Spheroids\nA high-throughput screen of multi-cell type tumor spheroids was designed to identify active combinations of DNA G-quadruplex stabilizer agents and targeted small molecules. Complex spheroids include a stromal component modeled by human endothelial cells (HUVEC) and fibroblasts modeled by human mesenchymal stem cells (MSCs). The concentration ranges selected for each drug and investigational agent were based upon clinically achievable concentrations if the clinical Cmax of the agent was known.\nCompounds. The drugs and investigational agents: pidnarulex (CX-5461; NSC782164), APTO-253 (NSC789042), BRACO-19 (NSC847499), peposertib (NSC802822), ceralasertib (NSC780249), elimusertib (NSC800525), camonsertib (NSC841442), AZD-1390 (NSC803789), olaparib (NSC753686), talazoparib (NSC767125), ART-558 (NSC835418), sotorasib (NSC818433), MRTX-1133 (NSC836407), SN-38 (NSC673596), topotecan (NSC609699), etoposide (NSC141540), doxorubicin (NSC123127), gemcitabine (NSC613327), 5-fluorouracil (NSC19893), paclitaxel (NSC125973), vemurafenib (NSC761431), panobinostat (NSC761190), R-306465 (JNJ-16241199; NSC773264), adavosertib (NSC754352), TP-3654 (NSC805149), carboplatin (NSC241240), KSQ-4279 (NSC840948), and staurosporine (NSC755774) were obtained from the National Cancer Institute (NCI) Developmental Therapeutics Program Chemical Repository (34). The FDA-approved anticancer drug set is available from the NCI Developmental Therapeutics Program. […] The stock solutions were prepared in dimethyl sulfoxide (DMSO, Sigma-Aldrich, St. Louis, MO, cat. D2650) at 800-fold the tested concentration and stored at -70 degrees C prior to their use. All drugs and investigational agents were tested over a range starting from a high concentration at or near the clinical Cmax and decreasing in half-log increments. If the clinical Cmax for an agent had not been determined, the highest concentration tested was 10 microM.\n2.3 Cell Culture. All cells were maintained in an incubator at 37 degrees C and 5% CO2 with 95% humidity. The PDC lines were cultured according to standard operating procedures established by the NCI PDMR. All PDCs were thawed and cultured in Matrigel-coated flasks prepared with a working solution of 1X Ham's F-12 nutrient mix, without supplementation (Invitrogen, cat. 11765054), 100 U/mL penicillin-streptomycin (Invitrogen, cat. 15140122), and 2.5% Matrigel (Corning Inc., cat. 354248) for the first three passages. The 857933-349-R-J2-PDC line was cultured in 6C/Colon 1B media, which includes advanced DMEM/F-12 (Thermo Fisher Scientific, cat. 12634028), 10 mM HEPES (Thermo Fisher Scientific, cat. 15630080), 1X GlutaMAX supplement (Thermo Fisher Scientific, cat. 35050061), 0.1 mg/mL primocin (InvivoGen, cat. ant-pm-2), 10% defined fetal bovine serum, heat inactivated (HyClone Laboratories Inc., cat. SH30070.03HI), 50% L-WRN conditioned media (ATCC, cat. CRL-3276), 1.25 mM N-Acetyl-L-cysteine (Sigma-Aldrich, cat. A9165), 10 mM nicotinamide (Sigma-Aldrich, cat. N0636), 1X B-27 supplement (Thermo Fisher Scientific, cat. 17504044), 1X N-2 supplement (Thermo Fisher Scientific, cat. 17502048), 10 microM Y-27632 dihydrochloride (Tocris Bioscience, cat. 1254), and 50 ng/mL human EGF recombinant protein (Thermo Fisher Scientific, cat. PHG0311). The 485176-168-R4-J1-PDC line was cultured in Panc media, which includes all 6C/Colon 1B media components plus 100 ng/mL human FGF-10 (Thermo Fisher Scientific, cat. 100-26), 500 nM SB-431542 (Selleckchem, cat. S1067), and gastrin (Tocris, cat. 3006).\n[…]", "note": "Values joined by “and” are separate entries in the source; they are usually repeats but may differ in a detail not shown here. Identical values can stand only once.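 Further: spheroids exposed to the agents for one week before reading.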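 Wherever viability, T/C is given: percent of vehicle DMSO control viability so 100% = untreated growth.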"}
{"smiles": "CC[C@@]1(O)C(=O)OCc2c1cc1n(c2=O)Cc2cc3c(CN(C)C)c(O)ccc3nc2-1", "note": "+ Cc1cnc(CNC(=O)c2c(=O)c3ccc(N4CCCN(C)CC4)nc3n3c2sc2ccccc23)cn1", "values": [{"measurement": "IC50", "setting": "curve of first compound, second compound 0.0316 µM", "result": "> 0.316", "unit": "µM"}, {"measurement": "IC50", "setting": "curve of first compound, second compound 0.1 µM", "result": "> 0.316", "unit": "µM"}, {"measurement": "IC50", "setting": "curve of first compound, second compound 0.316 µM", "result": "> 0.316", "unit": "µM"}, {"measurement": "IC50", "setting": "curve of first compound, second compound 1 µM", "result": "> 0.316", "unit": "µM"}, {"measurement": "IC50", "setting": "curve of first compound, second compound 3.16 µM", "result": "> 0.316", "unit": "µM"}, {"measurement": "IC50", "setting": "curve of first compound, second compound 10 µM", "result": "< 0.000999", "unit": "µM"}, {"measurement": "viability, T/C", "setting": "second compound 0.0316 µM, first compound 0.000999 µM", "result": 83.8, "unit": "%"}, {"measurement": "viability, T/C", "setting": "second compound 0.0316 µM, first compound 0.00316 µM", "result": 107, "unit": "%"}, {"measurement": "viability, T/C", "setting": "second compound 0.0316 µM, first compound 0.00999 µM", "result": 93.2, "unit": "%"}, {"measurement": "viability, T/C", "setting": "second compound 0.0316 µM, first compound 0.0316 µM", "result": 81.6, "unit": "%"}, {"measurement": "viability, T/C", "setting": "second compound 0.0316 µM, first compound 0.0999 µM", "result": 54.8, "unit": "%"}, {"measurement": "viability, T/C", "setting": "second compound 0.0316 µM, first compound 0.316 µM", "result": 53.9, "unit": "%"}, {"measurement": "viability, T/C", "setting": "second compound 0.1 µM, first compound 0.000999 µM", "result": 85.1, "unit": "%"}, {"measurement": "viability, T/C", "setting": "second compound 0.1 µM, first compound 0.00316 µM", "result": 80.2, "unit": "%"}, {"measurement": "viability, T/C", "setting": "second compound 0.1 µM, first compound 0.00999 µM", "result": 65.5, "unit": "%"}, {"measurement": "viability, T/C", "setting": "second compound 0.1 µM, first compound 0.0316 µM", "result": 68.7, "unit": "%"}, {"measurement": "viability, T/C", "setting": "second compound 0.1 µM, first compound 0.0999 µM", "result": 64.2, "unit": "%"}, {"measurement": "viability, T/C", "setting": "second compound 0.1 µM, first compound 0.316 µM", "result": 63.6, "unit": "%"}, {"measurement": "viability, T/C", "setting": "second compound 0.316 µM, first compound 0.000999 µM", "result": 69.2, "unit": "%"}, {"measurement": "viability, T/C", "setting": "second compound 0.316 µM, first compound 0.00316 µM", "result": 67.9, "unit": "%"}, {"measurement": "viability, T/C", "setting": "second compound 0.316 µM, first compound 0.00999 µM", "result": 68.8, "unit": "%"}, {"measurement": "viability, T/C", "setting": "second compound 0.316 µM, first compound 0.0316 µM", "result": 78.2, "unit": "%"}, {"measurement": "viability, T/C", "setting": "second compound 0.316 µM, first compound 0.0999 µM", "result": 73.1, "unit": "%"}, {"measurement": "viability, T/C", "setting": "second compound 0.316 µM, first compound 0.316 µM", "result": 76.6, "unit": "%"}, {"measurement": "viability, T/C", "setting": "second compound 1 µM, first compound 0.000999 µM", "result": 71, "unit": "%"}, {"measurement": "viability, T/C", "setting": "second compound 1 µM, first compound 0.00316 µM", "result": 72.9, "unit": "%"}, {"measurement": "viability, T/C", "setting": "second compound 1 µM, first compound 0.00999 µM", "result": 71.1, "unit": "%"}, {"measurement": "viability, T/C", "setting": "second compound 1 µM, first compound 0.0316 µM", "result": 68.3, "unit": "%"}, {"measurement": "viability, T/C", "setting": "second compound 1 µM, first compound 0.0999 µM", "result": 75.7, "unit": "%"}, {"measurement": "viability, T/C", "setting": "second compound 1 µM, first compound 0.316 µM", "result": 58, "unit": "%"}, {"measurement": "viability, T/C", "setting": "second compound 3.16 µM, first compound 0.000999 µM", "result": 67.4, "unit": "%"}, {"measurement": "viability, T/C", "setting": "second compound 3.16 µM, first compound 0.00316 µM", "result": 58.6, "unit": "%"}, {"measurement": "viability, T/C", "setting": "second compound 3.16 µM, first compound 0.00999 µM", "result": 58.7, "unit": "%"}, {"measurement": "viability, T/C", "setting": "second compound 3.16 µM, first compound 0.0316 µM", "result": 52, "unit": "%"}, {"measurement": "viability, T/C", "setting": "second compound 3.16 µM, first compound 0.0999 µM", "result": 65.6, "unit": "%"}, {"measurement": "viability, T/C", "setting": "second compound 3.16 µM, first compound 0.316 µM", "result": 59.4, "unit": "%"}, {"measurement": "viability, T/C", "setting": "second compound 10 µM, first compound 0.000999 µM", "result": 42.5, "unit": "%"}, {"measurement": "viability, T/C", "setting": "second compound 10 µM, first compound 0.00316 µM", "result": 41.2, "unit": "%"}, {"measurement": "viability, T/C", "setting": "second compound 10 µM, first compound 0.00999 µM", "result": 47.7, "unit": "%"}, {"measurement": "viability, T/C", "setting": "second compound 10 µM, first compound 0.0316 µM", "result": 52.3, "unit": "%"}, {"measurement": "viability, T/C", "setting": "second compound 10 µM, first compound 0.0999 µM", "result": 36, "unit": "%"}, {"measurement": "viability, T/C", "setting": "second compound 10 µM, first compound 0.316 µM", "result": 40.9, "unit": "%"}]}
{"smiles": "COc1cc(C2c3cc4c(cc3C(OC3OC5COC(C)OC5C(O)C3O)C3COC(=O)C23)OCO4)cc(OC)c1O", "note": "(stereo not drawn)", "values": [{"measurement": "viability, T/C", "setting": "compound 0.0316 µM", "result": "89.4% and 97.4% and 93.6%"}, {"measurement": "viability, T/C", "setting": "compound 0.1 µM", "result": "96.5% and 82.4% and 72.5%"}, {"measurement": "viability, T/C", "setting": "compound 0.316 µM", "result": "74.2% and 76.2% and 74.6%"}, {"measurement": "viability, T/C", "setting": "compound 1 µM", "result": "78.1% and 70.3% and 58.1%"}, {"measurement": "viability, T/C", "setting": "compound 3.16 µM", "result": "64.4% and 59.9% and 78.7%"}, {"measurement": "viability, T/C", "setting": "compound 10 µM", "result": "48% and 46% and 36%"}, {"measurement": "IC50", "setting": "curve of compound", "result": "9.17 µM and 7.57 µM and 6.25 µM"}]}
{"smiles": "Nc1ccn(C2OC(CO)C(O)C2(F)F)c(=O)n1", "note": "(stereo not drawn)", "values": [{"measurement": "viability, T/C", "setting": "compound 0.0316 µM", "result": "44.7% and 45.7% and 52.1%"}, {"measurement": "viability, T/C", "setting": "compound 0.1 µM", "result": "46.9% and 45.7% and 47.2%"}, {"measurement": "viability, T/C", "setting": "compound 0.316 µM", "result": "49.2% and 45.3% and 41.9%"}, {"measurement": "viability, T/C", "setting": "compound 1 µM", "result": "52% and 47.8% and 53%"}, {"measurement": "viability, T/C", "setting": "compound 3.16 µM", "result": "40.2% and 36.2% and 38.9%"}, {"measurement": "viability, T/C", "setting": "compound 10 µM", "result": "47.3% and 43.5% and 45.3%"}, {"measurement": "IC50", "setting": "curve of compound", "result": "< 0.0316", "unit": "µM"}]}
{"smiles": "Cc1[nH]c2ccc(F)cc2c1-c1nc2c3cccnc3c3ncccc3c2[nH]1", "values": [{"measurement": "viability, T/C", "setting": "compound 0.0316 µM", "result": "99.3% [middle of 12 runs]"}, {"measurement": "viability, T/C", "setting": "compound 3.16 µM", "result": "46.7% [middle of 12 runs]"}, {"measurement": "viability, T/C", "setting": "compound 10 µM", "result": "68.5% [middle of 12 runs]"}, {"measurement": "IC50", "setting": "compound alone, run of 03/18/2024", "result": "> 10 µM and 3.62 µM"}, {"measurement": "IC50", "setting": "compound alone, run of 03/26/2024", "result": "> 10", "unit": "µM"}]}
{"smiles": "COc1ncnc(C2CC2)c1-c1ncc2cnn(Cc3ccc(-c4nc(C(F)(F)F)cn4C(C)C)cc3)c2n1", "values": [{"measurement": "viability, T/C", "setting": "compound 0.0316 µM", "result": "112% and 120% and 109%"}, {"measurement": "viability, T/C", "setting": "compound 0.1 µM", "result": "99.5% and 93.3% and 79.8%"}, {"measurement": "viability, T/C", "setting": "compound 0.316 µM", "result": "107% and 103% and 102%"}, {"measurement": "viability, T/C", "setting": "compound 1 µM", "result": "106% and 104% and 102%"}, {"measurement": "viability, T/C", "setting": "compound 3.16 µM", "result": "97.8% and 112% and 113%"}, {"measurement": "viability, T/C", "setting": "compound 10 µM", "result": "105% and 117% and 89%"}, {"measurement": "IC50", "setting": "curve of compound", "result": "> 10", "unit": "µM"}]}
